pIC50: −log10 of the molar value.
These compounds were tested against T1, cloned human glucagon receptor (Homo sapiens, UniProt P47871) (assay: Glucagon Binding Assay (II)). Conditions: not given.
T1 construct: expressed in transfected cells; plasma membrane preparation
T1 sequence (P47871 26-477): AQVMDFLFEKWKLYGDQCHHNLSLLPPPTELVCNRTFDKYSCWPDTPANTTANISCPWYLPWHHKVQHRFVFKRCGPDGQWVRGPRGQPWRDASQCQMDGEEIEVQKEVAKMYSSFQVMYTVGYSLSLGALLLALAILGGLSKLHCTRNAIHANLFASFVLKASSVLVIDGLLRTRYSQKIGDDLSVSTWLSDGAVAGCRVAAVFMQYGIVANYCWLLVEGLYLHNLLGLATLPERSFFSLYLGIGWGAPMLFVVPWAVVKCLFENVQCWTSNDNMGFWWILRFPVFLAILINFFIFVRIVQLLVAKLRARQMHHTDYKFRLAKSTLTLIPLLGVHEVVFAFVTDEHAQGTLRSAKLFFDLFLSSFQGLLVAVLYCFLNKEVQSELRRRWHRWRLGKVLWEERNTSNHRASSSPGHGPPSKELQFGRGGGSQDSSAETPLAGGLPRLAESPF

Row | Structure (SMILES) | pIC50
1 | CC(C)(C)C1CCC(N(Cc2ccc(C(=O)NCCC(=O)O)cc2)C(=O)Nc2ccc(Cl)c(Cl)c2)CC1 (stereo not shown) [drawing 1169] | 6.65

Same assay, conditions: plasma membranes of BHK cells expressing the receptor; read-out: Glu Bd Assay (II) IC50

Row | pIC50 | Structure (SMILES)
2 | 7.64 | CC(C)(C)C1CCC(N(Cc2ccc(C(=O)NCc3nn[nH]n3)cc2)C(=O)Nc2cc(Cl)cc(Cl)c2)CC1 (stereo not shown) [Example 173, 4-[1-(4-tert-Butylcyclohexyl)-3-(3,5-dichlorophenyl)ureidomethyl]-N-(2H-tetrazol-5-ylmethyl)benzamide]
3 | 6.80 | O=C(Nc1nn[nH]n1)c1ccc(CN(Cc2ccc(OC(F)(F)F)cc2)[C@H]2CC[C@H](C3CCCCC3)CC2)cc1 [Example 574, 4-({(trans-4-Cyclohexylcyclohexyl)-[4-(trifluoromethoxy)benzyl]amino}methyl)-N-(2H-tetrazol-5-yl)benzamide]
4 | 6.78 | O=C(Nc1nn[nH]n1)c1ccc(CN(Cc2ccc(OC(F)(F)F)cc2)[C@H]2CC[C@@H](C3CCCCC3)CC2)cc1 [Example 572, 4-({(4-cis-Cyclohexylcyclohexyl)-[4-(trifluoromethoxy)benzyl]amino}methyl)-N-(2H-tetrazol-5-yl)benzamide]

Same assay, conditions: screened at 1 μM; library compounds; read-out: displacement of the glucagon tracer when screened at 1 μM concentration in the glucagon binding assay II

Row | inhibition at 1 µM | Structure (SMILES)
5 | > 50% | CC(C)(C)c1ccc(CN(Cc2ccc(C(=O)NCCC(=O)O)s2)C(=O)Nc2ccc(SC(F)(F)F)cc2)cc1 [Example 130, 3-{5-[1-(4-tert-Butylbenzyl)-3-(4-trifluoromethylsulfanylphenyl)ureidomethyl]thiophene-2-carbonylamino)propionic acid]
6 | > 50% | CC(C)(C)c1ccc(CN(Cc2ccc(C(=O)NCCC(=O)O)s2)C(=O)Nc2ccc3ccccc3c2)cc1 [Example 127, 3-{5-[1-(4-tert-Butylbenzyl)-3-naphthalene-2-ylureidomethyl]thiophene-2-carbonylamino)propionic acid]
7 | > 50% | CC(C)(C)C1CCC(N(Cc2ccc(C(=O)NCCC(=O)O)cc2)C(=O)NC2CC2c2ccccc2)CC1 (stereo not shown) [Example 132, 3-{4-[1-(4-tert-Butylcyclohexyl)-3-(2-phenylcyclopropyl)ureidomethyl]benzoylamino)propionic acid]
8 | > 50% | Cc1cc(C)cc(NC(=O)N(Cc2ccc(C(=O)NCCC(=O)O)cc2)c2ccc(C3CCCCC3)cc2)c1 [Example 186, 3-{4-[1-(4-Cyclohexylphenyl)-3-(3,5-dimethylphenyl)ureidomethyl]benzoylamino}propionic acid]
9 | > 50% | O=C(O)CCCOc1ccc(CN(C(=O)Nc2ccc(OC(F)(F)F)cc2)c2ccc(C3CCCCC3)cc2)cc1 [Example 216, 4-{4-[1-(4-Cyclohexylphenyl)-3-(4-trifluoromethoxyphenyl)ureidomethyl]phenoxy}butyric acid]
10 | > 50% | O=C(O)CCNC(=O)c1ccc(CN(CCc2ccccc2)Cc2ccc(Oc3ccccc3)cc2)cc1 [Example 145, 3-(4-{[(2-Phenylethyl)-(4-phenoxybenzyl)amino]methyl}benzoylamino)propionic acid]
11 | > 50% | CC(=O)N1CCc2cc(N(Cc3ccc(C(=O)NCCC(=O)O)cc3)C(=O)Nc3ccc(Cl)c(C(F)(F)F)c3)ccc21 [Example 194, 3-{4-[1-(1-Acetyl-2,3-dihydro-1H-indol-5-yl)-3-(4-chloro-3-trifluoromethylphenyl)ureidomethyl]benzoylamino}propionic acid]
12 | > 50% | COc1ccc2nc(N(Cc3ccc(OCCCC(=O)O)cc3)C(=O)Nc3ccc(Cl)c(C(F)(F)F)c3)sc2n1 [Example 221, 4-{4-[3-(4-Chloro-3-trifluoromethylphenyl)-1-(5-methoxythiazolo[5,4-b]pyridin-2-yl)ureidomethyl]phenoxy}butyric acid]
13 | > 50% | CC(C)(C)C1CCC(N(Cc2ccc(C(=O)Nc3ncnc4[nH]ncc34)cc2)C(=O)Nc2cc(Cl)cc(Cl)c2)CC1 (stereo not shown) [Example 170, 4-[1-(4-tert-Butylcyclohexyl)-3-(3,5-dichlorophenyl)ureidomethyl]-N-(1H-pyrazolo[3,4-d]pyrimidin-4-yl)benzamide]
